{"source": "patent US7994222B2", "about": "“Monitoring of the inhibition of fatty acid synthesis by iodo-nitrobenzamide compounds” (BiPar Sciences, Inc., priority 2006, dated 2011)", "key": {"glycogen phosphorylase": {"tested_on": "glycogen phosphorylase", "conditions": "in the presence or absence of glucose; human cells; cited from earlier work"}, "HeLa cells": {"tested_on": "HeLa cells", "experiment": "Metabolic flux profiling with [1,2-13C2]-D-glucose tracer in cultured HeLa cells (GC/MS, MIDA)", "assay_type": "cell-based, human", "excerpt": "(§1) Goal: This study relates to analyzing the effect of the 3-nitro-4-iodobenzamide (compound of formula III) in vitro on cultured OVCAR-3 cells' and HeLa cells' metabolic fluxes using [1,2-^13C2]-D-glucose as the only source of glucose. The analysis includes correlating fluxes with cell growth-modifying effect, analyzing mechanism of anti-proliferative action and analyzing potential toxicity, selectivity, and efficacy. Target metabolites include glucose (culture medium and pellet glycogen), lactate (culture medium), ^13CO2 (culture medium), C:14 (myristate); C:16 (palmitate); C:18 (stearate); C:18-1 (oleate); C:20; C:22; C:24 (cell pellet), acetyl-CoA synthesis for fatty acids (cell pellet), and RNA ribose and DNA deoxyribose (cell pellet). Target fluxes include glucose uptake from culture media; lactate production from glucose (anaerobic glycolysis); ^13CO2 release from glucose via TCA cycle; glycogen synthesis; de novo fatty acid synthesis, elongation, desaturation and acetyl-CoA synthesis; and pentose cycle-RNA and DNA ribose synthesis via oxidative and non-oxidative reactions.\n(§2) Materials & Methods: The tracer for this metabolic profiling study, stable isotope [1, 2-^13C2]-D-glucose, is purchased with >99% purity and 99% isotope enrichment for each position from Cambridge Isotope Laboratories, Inc. (Andover, Mass.).\n(§3) Cells & cell culture: OVCAR3 and Hela cells are purchased from American Type Culture Collection (ATCC). The cells are cultured according to instructions obtained from ATCC. The cells are incubated at 37° C., 5% CO2 and 95% humidity and passed by using trypsin 0.25% (Gibco/BRL) no more than ten times after receipt from the ATCC and prior to use in this study.\n(§4) Seventy-five percent confluent cultures cells are incubated in [1,2-^13C2]D-glucose-containing media (100 mg/dl total concentration=5 mM; 50% isotope enrichment—i.e. half unlabeled glucose, half labeled with the stable isotope ^13C tracer). […] Control cultures are treated with vehicle only. […] Glucose and lactate levels in the medium are measured using a Cobas Mira chemistry analyzer (Roche Diagnostics, Pleasanton, Calif., USA).\n(§5) RNA ribose stable isotope studies: RNA ribose is isolated by acid hydrolysis of cellular RNA after Trizol purification of cell extracts. Total RNA amounts are assessed by spectrophotometric determination, in triplicate cultures. Ribose is derivatized to its aldonitrile acetate form using hydroxylamine in pyridine with acetic anhydride (Supelco, Bellefonte, Pa.) before mass spectral analyses. The ion cluster is monitored around the m/z 256 (carbons 1-5 of ribose) (chemical ionization, CI) and m/z 217 (carbons 3-5 of ribose) and m/z 242 (carbons 1-4 of ribose) (electron impact ionization, EI) to determine molar enrichment and the positional distribution of ^13C in ribose. By convention, the base mass of ^12C-compounds (with their derivatization agents) is given as m0 as measured by mass spectrometry (Boros L G, et al. 2002, Drug Discov. Today 7: 364-372).\n(§6) Ribose molecules labeled with a single ^13C atom on the first carbon position (m1) recovered from RNA are used to gauge the ribose fraction produced by direct oxidation of glucose through the G6PD pathway. Ribose molecules labeled with ^13C on the first two carbon positions (m2) are used to measure the fraction produced by transketolase. Doubly labeled ribose molecules (m2 and m4) on the fourth and fifth carbon positions are used to measure molar fraction produced by triose phosphate isomerase and transketolase.\n(§7) Lactate: Lactate from the cell culture media (0.2 ml) is extracted by ethylene chloride after acidification with HCL. Lactate is derivatized to its propylamine-heptafluorobutyrate ester form and the m/z 328 (carbons 1-3 of lactate) (chemical ionization, CI) is monitored for the detection of m1 (recycled lactate through the PC) and m2 (lactate produced by the Embden-Meyerhof-Pamas pathway) for the estimation of pentose cycle activity (Lee W N, et al. 1998, Am J Physiol 274: E843-E851). […]"}, "OVCAR-3 cells": {"tested_on": "OVCAR-3 cells", "experiment": "Metabolic flux profiling with [1,2-13C2]-D-glucose tracer in cultured OVCAR-3 cells (GC/MS, MIDA)", "assay_type": "cell-based, human", "excerpt": "as §1, §2, §3, §4, §5, §6, §7"}, "cancer cells": {"tested_on": "cancer cells", "conditions": "cancer cells with highly active fatty acid synthesis; cited from earlier work"}, "[1]": {"conditions": "cited from earlier work"}, "tumor tissue": {"tested_on": "tumor tissue", "conditions": "in vivo; cited from earlier work"}}, "note": "Entries after “also recorded” stand apart in the source; their conditions may differ.", "data": [{"smiles": "NC(=O)c1ccc(I)c([N+](=O)[O-])c1", "note": "[3-nitro-4-iodobenzamide]", "values": [{"measurement": "glycogen phosphorylase activity", "setting": "glycogen phosphorylase", "value": "effectively controls"}, {"measurement": "De novo synthesis of arachidic acid (C:20)", "setting": "HeLa cells; HeLa cells", "value": "spared from the inhibitory action"}, {"measurement": "Oxidation of glucose into CO2 and ATP production in the TCA cycle", "setting": "HeLa cells; HeLa cells", "value": "not affected"}, {"measurement": "acetyl-CoA contribution from glucose to long chain saturated fatty acids (C:20-C:24)", "setting": "HeLa cells; HeLa cells", "value": "dose-dependent increase"}, {"measurement": "contribution to acetyl-CoA synthesis from glucose (C:14-C:18 fatty acids)", "setting": "HeLa cells; HeLa cells", "value": "low"}, {"measurement": "substrate (glucose) uptake and activation (phosphorylation)", "setting": "HeLa cells; HeLa cells", "value": "no inhibitory effect"}, {"measurement": "toxic effects on cell energy production, nucleic acid turnover and glycogen synthesis", "setting": "HeLa cells; HeLa cells", "value": "no toxic effects"}, {"measurement": "medium and long chain fatty acid (C:14-C:18) de novo synthesis from glucose", "setting": "HeLa cells; HeLa cells, dose-responsive", "value": "decreased"}, {"measurement": "cell membrane formation via limited de novo fatty acid synthesis", "setting": "HeLa cells; HeLa cells, mechanism of anti-proliferative action", "value": "decreases"}, {"measurement": "Acetyl-CoA enrichment/formation from glucose for arachidic acid synthesis", "setting": "HeLa cells; HeLa cultures", "value": "high and increases"}, {"measurement": "myristate (C:14) synthesis", "setting": "HeLa cells; Hela cells, 3 and 10 μM, 13C-labeled myristate at 72 hours, FIGS. 3A and B", "value": "inhibit"}, {"measurement": "oleate (C:18-1) synthesis", "setting": "HeLa cells; Hela cells, 3 and 10 μM, 13C-labeled oleate at 72 hours, FIGS. 6A and B", "value": "inhibit"}, {"measurement": "palmitate (C:16) synthesis", "setting": "HeLa cells; Hela cells, 3 and 10 μM, 13C-labeled palmitate at 72 hours, FIGS. 4A and B", "value": "inhibit"}, {"measurement": "stearate (C:18) synthesis", "setting": "HeLa cells; Hela cells, 3 and 10 μM, 13C-labeled stearate at 72 hours, FIGS. 5A and B", "value": "inhibit"}, {"measurement": "C:22 fatty acid synthesis", "setting": "HeLa cells; Hela cells, 3 and 10 μM, 72 hours, FIGS. 7A and B", "value": "inhibit"}, {"measurement": "C:24 fatty acid synthesis", "setting": "HeLa cells; Hela cells, 3 and 10 μM, 72 hours, FIGS. 8A and B", "value": "inhibit"}, {"measurement": "G6PDH and transketolase fluxes for DNA deoxyribose synthesis", "setting": "OVCAR-3 cells", "value": "target enzymes; also recorded: inhibits"}, {"measurement": "Glycogen synthesis and breakdown via the direct pathway", "setting": "OVCAR-3 cells", "value": "inhibits"}, {"measurement": "acetyl-CoA contribution from glucose to long chain saturated fatty acids (C:20-C:24)", "setting": "OVCAR-3 cells", "value": "dose-dependent increase"}, {"measurement": "toxic effects on cell energy production and nucleic acid RNA turnover", "setting": "OVCAR-3 cells", "value": "no toxic effects"}, {"measurement": "arachidic acid (C:20) synthesis", "setting": "OVCAR-3 cells; 3 and 10 μM, 72 hours, FIGS. 9A and B", "value": "inhibit"}, {"measurement": "C:22 fatty acid synthesis", "setting": "OVCAR-3 cells; 3 and 10 μM, 72 hours, FIGS. 10A and B", "value": "inhibit"}, {"measurement": "C:24 fatty acid synthesis", "setting": "OVCAR-3 cells; 3 and 10 μM, 72 hours, FIGS. 11A and B", "value": "inhibit"}, {"measurement": "cell membrane formation via limited de novo long chain (C:20-C:24) fatty acid synthesis", "setting": "OVCAR-3 cells; mechanism of anti-proliferative action", "value": "decreases"}]}, {"smiles": "C/C=C/C/C=C/CCC(=O)[C@H]1O[C@H]1C(N)=O", "note": "[cerulenin]", "values": [{"measurement": "effect on cancer cells in vitro", "setting": "cancer cells", "value": "cell death by means of apoptosis"}, {"measurement": "in vivo activity", "setting": "[1]", "value": "limited in vivo activity"}]}, {"smiles": "C=C1C(=O)OC(CCCCCCCC)C1C(=O)O", "note": "(stereo not shown) [C75]", "values": [{"measurement": "anti-tumor activity", "setting": "tumor tissue", "value": "anti-tumor activity"}, {"measurement": "fatty acid synthesis in tumor tissue", "setting": "tumor tissue", "value": "inhibition"}]}]}
